From paper PMC12345137 (mBio, 2025)
Like-named read-outs stand apart in the source and are kept apart here. Positions of bridges follow the written chain, without caps; N, C: chain ends. Residues, ends and D or L forms follow the SMILES beside them.

What was measured:
S. aureus (SA) agr-II = settings: fluorescence, cited from earlier work
S. aureus (SA) agr-IV = settings: fluorescence, cited from earlier work
S. aureus agr-I = S. aureus agr-I (Staphylococcus aureus, UniProt O07911); assay: Fluorescence reporter assay for agr interference, screening and IC50 (AH1677, P3-YFP); type: cell-based
Procedure: (§1) Peptides were evaluated for the ability to interfere with agr-mediated quorum sensing in S. aureus (AH1677, AH430, AH1747, and AH1872 for agr-I–IV, respectively) ([40]) using reporter strains expressing yellow fluorescent protein (YFP) upon agr activation. Interference with agr-mediated quorum sensing in S. epidermidis (AH3408, AH3623, and AH3409 for agr-I–III, respectively) ([45]), and S. lugdunensis (AH4031 for agr-I) ([37]) was evaluated using reporter strains expressing superfolder green fluorescent protein (sGFP) upon agr activation. Overnight cultures of the reporter strains were grown in TSB medium containing chloramphenicol (CAM, 10 μg/mL for S. aureus) or erythromycin (ERM, 10 μg/mL of S. epidermidis and S. lugdunensis) and diluted 1:100 in fresh TSB medium containing the same antibiotic. Assays were performed in sterile black 96-well plates with a clear bottom. […] DMSO stock solutions of peptides (1 mM) were diluted in TSB media and added (15 μL) in technical triplicate to the 96-well plate, followed by diluted bacterial overnight cultures (135 μL). […] Wells containing 150 μL TSB medium were used to measure background fluorescence. The 96-well plates were incubated in a humidified incubator at 37°C shaking at 1,000 rpm for 22–24 h and fluorescence (for GFP: excitation 479 nm, emission 520 nm; for YFP: excitation 500 nm, emission 541 nm; automatic gain), and OD600 values were subsequently measured using a plate reader. Background fluorescence was subtracted from all wells and further normalized to the corresponding OD600 value of the respective wells. The average fluorescence of control wells was used as a relative measure for 100% activation of the agr-circuit, and bar graphs were generated using GraphPad Prism 10.4 software. All assays were performed in at least a biological duplicate.
(§2) Overnight cultures of the reporter strains were grown in TSB medium containing chloramphenicol (CAM, 10 μg/mL for S. aureus) or erythromycin (ERM, 10 μg/mL of S. epidermidis and S. lugdunensis) and diluted 1:100 in fresh TSB medium containing the same antibiotic. Assays were performed in sterile black 96-well plates with clear bottoms. Peptide solutions (15 μL) in 1:5 serial dilutions from DMSO stock solutions (1 mM) in TSB medium were added to the 96-well plate in technical duplicate followed by diluted bacterial overnight cultures (135 μL). […] Wells containing 150 μL TSB medium were used to measure background fluorescence. The 96-well plates were incubated in a humidified incubator at 37°C shaking at 1,000 rpm for 22–24 h and fluorescence (for GFP: excitation 479 nm, emission 520 nm; for YFP: excitation 500 nm, emission 541 nm; automatic gain), and OD600 values were subsequently measured using a plate reader. Background fluorescence was subtracted from all wells and further normalized to the corresponding OD600 value of the respective wells. The average fluorescence of control wells was used as a relative measure for 100% activation of the agr-circuit. Relative agr activity was plotted to obtain IC50 values by non-linear regression with variable slope using GraphPad Prism 10.4 software. All assays were performed in biological triplicate.

S. aureus (SA) agr-I = settings: fluorescence, cited from earlier work
S. epidermidis agr-I = S. epidermidis agr-I (Staphylococcus epidermidis, UniProt Q5HMY3); assay: cell-based; type: cell-based; settings: for QS interaction in words (inhibition / activation), S. epidermidis agr-I: fluorescent reporter strain, peptides tested at 1000, 50, 2.5, 0.125 nM or in dose-response
Procedure: as §1, §2

S. aureus (SA) agr-III [1] = settings: fluorescence, cited from earlier work
SA AgrC-II = SA AgrC-II (Staphylococcus aureus, UniProt O33587)
SA AgrC-IV = SA AgrC-IV (Staphylococcus aureus, UniProt Q309Z2)
SA AgrC-I = SA AgrC-I (Staphylococcus aureus, UniProt O07911)
SA AgrC-III = SA AgrC-III (Staphylococcus aureus, UniProt O33590); settings: 100 nM cognate AIP, ± SEM, determined previously, ref (1), cited from earlier work
S. aureus (SA) agr-III [2] = system: S. aureus (SA) agr-III; parameters: method as in ref (5) (a number printed in a supplementary file, which may have a reference list of its own: not looked up in the article's list); settings: hemolysis; ref (5); cited from earlier work
[3] = system: S. epidermidis (SE) agr-I; settings: fluorescence, ref (11), cited from earlier work
[4] = 100 nM cognate AIP; ± SEM; -b = no inhibition recorded at the highest AIP concentration tested; determined previously; ref (1); read-out: IC50, SA AgrC-II, b-lactamase assay; cited from earlier work

SA AgrC-III, sequence (O33590 entry or part of it): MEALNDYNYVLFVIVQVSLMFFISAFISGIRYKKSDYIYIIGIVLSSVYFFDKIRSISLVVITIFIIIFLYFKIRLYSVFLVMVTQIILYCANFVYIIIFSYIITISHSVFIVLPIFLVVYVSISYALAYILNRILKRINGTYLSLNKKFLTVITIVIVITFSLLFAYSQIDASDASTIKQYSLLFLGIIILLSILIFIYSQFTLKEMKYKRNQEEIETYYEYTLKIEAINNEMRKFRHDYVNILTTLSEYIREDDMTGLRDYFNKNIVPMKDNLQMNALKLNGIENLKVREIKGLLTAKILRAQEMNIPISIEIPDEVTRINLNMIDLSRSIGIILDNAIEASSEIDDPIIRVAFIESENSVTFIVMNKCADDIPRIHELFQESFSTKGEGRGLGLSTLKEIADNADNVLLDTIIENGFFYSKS
SA AgrC-I, sequence (O07911 entry or part of it): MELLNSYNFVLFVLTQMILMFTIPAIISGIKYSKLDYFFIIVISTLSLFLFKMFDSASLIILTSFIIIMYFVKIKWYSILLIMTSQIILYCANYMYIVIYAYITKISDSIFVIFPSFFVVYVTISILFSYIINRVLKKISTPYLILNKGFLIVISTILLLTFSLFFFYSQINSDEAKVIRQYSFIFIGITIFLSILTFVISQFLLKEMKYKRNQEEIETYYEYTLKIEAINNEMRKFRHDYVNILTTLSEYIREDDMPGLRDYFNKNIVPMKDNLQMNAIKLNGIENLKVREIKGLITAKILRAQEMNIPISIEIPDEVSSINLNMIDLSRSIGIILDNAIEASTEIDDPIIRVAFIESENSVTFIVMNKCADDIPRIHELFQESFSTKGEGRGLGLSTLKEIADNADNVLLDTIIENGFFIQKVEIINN
S. aureus agr-I, sequence (O07911 entry or part of it): as above
SA AgrC-II, sequence (O33587 entry or part of it): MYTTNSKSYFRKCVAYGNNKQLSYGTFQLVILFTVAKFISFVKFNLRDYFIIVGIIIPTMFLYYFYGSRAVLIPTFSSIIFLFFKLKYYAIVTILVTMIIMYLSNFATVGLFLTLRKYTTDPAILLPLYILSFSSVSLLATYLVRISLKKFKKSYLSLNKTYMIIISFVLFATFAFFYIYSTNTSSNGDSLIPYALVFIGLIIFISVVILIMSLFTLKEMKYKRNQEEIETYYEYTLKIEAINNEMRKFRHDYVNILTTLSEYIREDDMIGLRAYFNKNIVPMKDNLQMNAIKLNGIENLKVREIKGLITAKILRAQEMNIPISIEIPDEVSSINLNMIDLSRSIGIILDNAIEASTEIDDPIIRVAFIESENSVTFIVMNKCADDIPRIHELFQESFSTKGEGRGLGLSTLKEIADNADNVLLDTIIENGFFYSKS
SA AgrC-IV, sequence (Q309Z2 entry or part of it): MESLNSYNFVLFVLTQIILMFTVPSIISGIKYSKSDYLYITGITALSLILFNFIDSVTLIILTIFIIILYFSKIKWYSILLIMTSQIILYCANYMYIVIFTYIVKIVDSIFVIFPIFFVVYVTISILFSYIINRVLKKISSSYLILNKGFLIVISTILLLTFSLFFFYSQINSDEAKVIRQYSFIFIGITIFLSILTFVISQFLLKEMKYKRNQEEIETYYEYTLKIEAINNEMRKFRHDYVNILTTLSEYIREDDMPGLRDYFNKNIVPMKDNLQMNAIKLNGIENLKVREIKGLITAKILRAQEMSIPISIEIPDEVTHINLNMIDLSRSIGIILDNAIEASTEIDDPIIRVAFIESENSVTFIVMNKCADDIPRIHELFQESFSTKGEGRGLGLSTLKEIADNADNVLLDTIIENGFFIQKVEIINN
S. epidermidis agr-I, sequence (Q5HMY3 entry or part of it): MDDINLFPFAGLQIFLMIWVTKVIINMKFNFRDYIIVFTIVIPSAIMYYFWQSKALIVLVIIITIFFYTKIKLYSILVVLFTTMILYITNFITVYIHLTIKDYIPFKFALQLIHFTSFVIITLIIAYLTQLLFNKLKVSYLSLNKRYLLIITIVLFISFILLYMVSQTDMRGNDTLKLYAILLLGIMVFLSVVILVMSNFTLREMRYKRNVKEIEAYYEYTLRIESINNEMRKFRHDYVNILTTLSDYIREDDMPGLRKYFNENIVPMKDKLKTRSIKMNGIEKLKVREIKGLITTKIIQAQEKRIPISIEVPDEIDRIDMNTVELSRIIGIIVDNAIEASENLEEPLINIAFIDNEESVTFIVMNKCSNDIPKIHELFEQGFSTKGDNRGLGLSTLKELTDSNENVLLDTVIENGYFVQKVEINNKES

CC(C)C[C@@H]1NC(=O)[C@@H](NC(=O)[C@@H]2CCCN2C(=O)[C@H](CC(N)=O)NC(=O)[C@H](Cc2ccc(O)cc2)NC(=O)[C@@H](N)CCCCN)CSC(=O)[C@H](CC(C)C)NC(=O)[C@H](Cc2ccccc2)NC(=O)CNC1=O [compound 32, S. simulans AIP-I] (H-KYNPCLGFL; thioester 5-C; N-terminus assumed)
IC50 (S. aureus (SA) agr-II; ref (17)): 1.1 nM
IC50 (S. aureus (SA) agr-IV; ref (17)): 23 nM
IC50 (S. aureus agr-I): 0.34 ± 0.02 nM
IC50 (S. aureus (SA) agr-I; ref (17)): 2.2 nM
IC50 (S. epidermidis agr-I): 0.74 ± 0.01 nM
IC50 (S. aureus (SA) agr-III [1]; ref (17)): 3.5 nM
IC50 (SA AgrC-II; read-out: IC50, SA AgrC-II, b-lactamase assay; 100 nM cognate AIP; ± SEM; -b = no inhibition recorded at the highest AIP concentration tested; determined previously; ref (1); cited from earlier work): 23 ± 2 nM
IC50 (SA AgrC-IV; read-out: IC50, SA AgrC-IV, b-lactamase assay; 100 nM cognate AIP; ± SEM; -b = no inhibition recorded at the highest AIP concentration tested; determined previously; ref (1); cited from earlier work): 280 ± 66 nM
IC50 (SA AgrC-I; read-out: IC50, SA AgrC-I, b-lactamase assay; 100 nM cognate AIP; ± SEM; -b = no inhibition recorded at the highest AIP concentration tested; determined previously; ref (1); cited from earlier work): 8.6 ± 0.5 nM
IC50 (SA AgrC-III; read-out: IC50, SA AgrC-III, b-lactamase assay, -b = no inhibition recorded at the highest AIP concentration tested): 50 ± 11 nM

S. aureus AIP-III D4A [compound 57, reference compound]
IC50 (S. aureus (SA) agr-II; ref (5)): 0.43 nM
IC50 (S. aureus (SA) agr-IV; ref (5)): 0.035 nM
IC50 (S. aureus (SA) agr-I; ref (5)): 0.49 nM
QS interaction in words (inhibition / activation), S. epidermidis agr-I (S. epidermidis agr-I): weak interference
IC50 (S. aureus (SA) agr-III [1]; ref (5)): 0.051 nM
IC50 (SA AgrC-II; [4]): 34 ± 1 nM
IC50 (S. aureus (SA) agr-III [2]): 0.16 nM
inhibition at 10 µM, SE agr-I ([3]; at 10 µM): ~ 25%
IC50 (SA AgrC-IV; 100 nM cognate AIP; ± SEM; -b = no inhibition recorded at the highest AIP concentration tested; determined previously; ref (1); read-out: IC50, SA AgrC-IV, b-lactamase assay; cited from earlier work): 10 ± 0.2 nM
IC50 (SA AgrC-I; 100 nM cognate AIP; ± SEM; -b = no inhibition recorded at the highest AIP concentration tested; determined previously; ref (1); read-out: IC50, SA AgrC-I, b-lactamase assay; cited from earlier work): 3.3 ± 0.7 nM
IC50 (SA AgrC-III; only partial inhibition observed, read-out: IC50, SA AgrC-III, b-lactamase assay, only partial inhibition observed (footnote a)): 1.6 ± 0.2 nM

NCCCC[C@H](N)C(=O)N[C@@H](Cc1ccc(O)cc1)C(=O)N[C@@H](Cc1ccc(O)cc1)C(=O)N1CCC[C@H]1C(=O)N[C@H]1CSC(=O)[C@H](Cc2ccccc2)NC(=O)[C@H](Cc2ccc(O)cc2)NC(=O)CNC(=O)[C@H](Cc2c[nH]c3ccccc23)NC1=O [compound 33, S. simulans AIP-II] (H-KYYPCWGYF; thioester 5-C)
IC50 (S. aureus (SA) agr-IV; ref (17)): 40 nM
IC50 (S. aureus agr-I): 0.45 nM
QS interaction in words (inhibition / activation), S. aureus agr-I (S. aureus agr-I; fluorescent reporter strain, peptides tested at 1000, 50, 2.5, 0.125 nM or in dose-response): inhibited
IC50 (S. aureus (SA) agr-I; ref (17)): 1.6 nM
IC50 (S. epidermidis agr-I): 0.31 ± 0.06 nM
QS interaction in words (inhibition / activation), S. epidermidis agr-I (S. epidermidis agr-I): inhibited
IC50 (S. aureus (SA) agr-III [1]; ref (17)): 11.5 nM

CC[C@H](C)[C@@H]1NC(=O)[C@H](Cc2ccccc2)NC(=O)[C@H](CC(=O)O)NC(=O)[C@@H](NC(=O)[C@@H](NC(=O)[C@H](CO)NC(=O)[C@@H](N)Cc2ccc(O)cc2)[C@@H](C)O)CSC(=O)[C@H](CCSC)NC1=O [compound 1, S. aureus AIP-I] (H-YSTCDFIM; thioester 4-C)
IC50 (S. aureus (SA) agr-II; ref (5)): 8 nM
IC50 (S. epidermidis agr-I): > 1000 nM
IC50 (S. aureus (SA) agr-III [1]; ref (5)): 0.53 nM
IC50 (SA AgrC-II; [4]): 700 ± 165 nM
IC50 (S. aureus (SA) agr-III [2]): 6.12 nM
inhibition at 1000 nM, SE agr-I ([3]; at 1000 nM): no inhibition
EC50 (SA AgrC-IV; ± SEM; determined previously; ref (1); read-out: EC50, SA AgrC-IV, b-lactamase assay; cited from earlier work): 790 ± 66 nM
EC50 (SA AgrC-I; ± SEM; determined previously; ref (1); read-out: EC50, SA AgrC-I, b-lactamase assay; cited from earlier work): 5.4 ± 0.5 nM
IC50 (SA AgrC-III; -b = no inhibition recorded at the highest AIP concentration tested, read-out: IC50, SA AgrC-III, b-lactamase assay): 80 ± 11 nM

NCCCC[C@H](N)C(=O)N[C@@H](Cc1ccc(O)cc1)C(=O)N[C@@H](CC(N)=O)C(=O)N1CCC[C@H]1C(=O)N[C@H]1CSC(=O)[C@H](Cc2ccccc2)NC(=O)[C@H](Cc2ccc(O)cc2)NC(=O)CNC(=O)[C@H](Cc2c[nH]c3ccccc23)NC1=O [compound 34, S. simulans AIP-III] (H-KYNPCWGYF; thioester 5-C)
IC50 (S. aureus (SA) agr-II; ref (17)): 6 nM
IC50 (S. aureus (SA) agr-IV; ref (17)): 48 nM
IC50 (S. aureus agr-I): 0.18 ± 0.03 nM
IC50 (S. aureus (SA) agr-I; ref (17)): 1.7 nM
IC50 (S. epidermidis agr-I): 0.14 ± 0.03 nM
IC50 (S. aureus (SA) agr-III [1]; ref (17)): 3.2 nM
